Values joined by “and” are separate entries in the source; they are usually repeats but may differ in a detail not shown here. Equal entries are not always repeated.
Target: T1, IL-1β (Homo sapiens, UniProt P01584)
Experiment: 19F-reporter displacement assay with (S)-1 as probe
Type: binding
Parameters: Mature hIL-1β was expressed in Escherichia coli; made in house; host or cells: Escherichia coli BL21 (DE3), pET17b
Details: 19F-reporter Ki, protein 10 μM, reporter (S)-1 40 μM
Protocol: Protein and reporter concentrations were 10 and 40 μM, respectively. To account for changes in sample homogeneity, samples contained 1-(2,2,2-trifluoroacetyl)piperidine-4-carboxylic acid as an internal reference for scaling signal intensities. Three concentrations of the competitor were typically measured, and the related displacement of the probe was converted into Ki-values according to Dalvit and Vulpetti[17]. […] This process was automated with FRPipe, an in-house developed Python script (https://github.com/Novartis/FRPipe) that allows for streamlined analysis of such experiments. […] For visual inspection, an overview containing relevant ^19F peaks, fitting curves, and proton spectra was plotted.
Supplementary Figure 2. 13C-NMR and 19F-NMR reporter assays to monitor early structure activity relationships of analogues of 1. a, b Early structure activity relationships monitored by protein-observed and c-f 19F-NMR reporter assays, exemplified for compound 8. a 1H-13C-HMQC spectra of hIL-1b (50 µM) were acquired in the presence (red) and absence (blue) of 500 µM compound and rows were extracted at the w1-frequency of the peak corresponding to Leu60 Cd1H3. b The degree of protein binding was estimated from the ratio I/I0, where I and I0 correspond to the signal in the presence and absence of compound, respectively. c For the assessment of the KI-values, the signal intensity of a reporter molecule (S)-1 was monitored in 19F-transverse relaxation experiments run in the absence and presence of increasing amounts of compound. d All intensities were scaled to the intensity of an internal standard (all signals in panel c and d are shifted on the X-axis for clarity). e KI-values were retrieved from theoretical binding curves calculated for each compound concentration8. f One-dimensional 1H-NMR spectra were recorded for each assay mixture to assess the structural integrity and solubility of the compound in the sample.
(1 picture or pasted object on this page, not shown here)

T1 sequence (P01584 117-269): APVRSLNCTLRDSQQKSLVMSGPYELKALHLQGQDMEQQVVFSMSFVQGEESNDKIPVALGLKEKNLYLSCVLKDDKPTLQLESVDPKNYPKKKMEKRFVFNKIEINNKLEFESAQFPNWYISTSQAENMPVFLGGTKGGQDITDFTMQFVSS

SMILES | Ki [µM]
O=C1Nc2ccccc2C1(O)c1cc(Cl)ccc1O (stereo not shown) [Compound 6] | > 1000
O=C1Nc2cc(C(F)(F)F)ccc2C1(O)c1ccccc1O (stereo not shown) [Compound 7] | > 1000
O=C1Nc2cc(Cl)ccc2C1(O)c1cc(Cl)ccc1O (stereo not shown) [Compound 9] | 172 ± 35

Same assay, conditions: 19F-reporter, individual experiments (Exp1-58), source data

SMILES | Ki
O=C1Nc2cc(Cl)ccc2C1(O)c1cc(Cl)ccc1O (stereo not shown) [Compound 9] | 197 µM and 147 µM

Target: T2, IL-1α (Homo sapiens, UniProt P01583)
T2 sequence (P01583 113-271): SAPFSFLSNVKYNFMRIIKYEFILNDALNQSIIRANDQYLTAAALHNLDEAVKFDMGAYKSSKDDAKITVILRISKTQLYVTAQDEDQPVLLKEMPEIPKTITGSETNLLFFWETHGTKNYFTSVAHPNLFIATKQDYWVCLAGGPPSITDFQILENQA
Experiment: TR-FRET IL-1α/hIL-1R1 receptor displacement assay
Type: biochemical
Details: read-out: TR-FRET IL-1α IC50
Protocol: After 1 h incubation at room temperature, hIL-1R1 (1–332; Alexa 647 labeled; 50 nM final concentration) and anti-His-Europium W1024 (Perkin Elmer; Cat.No. AD0401, 1 nM final concentration) were added to a final volume of 10 μl per well. After 1 h of incubation at room temperature, time-resolved fluorescence was measured at λexc = 320 ± 20 nm, λem = 620 ± 25 nm/665 ± 25 nm using a Pherastar FSX plate reader. All experiments were run in triplicates. The data provided a typical saturation-binding curve, and the IC50 values were calculated by fitting the results to the Hill equation using Prism 7.0 and the in-house software Helios.

SMILES | IC50 [µM]
O=C1Nc2cc(C(F)(F)F)ccc2C1(O)c1cc(Cl)ccc1O (stereo not shown) [Compound 1] | > 200
O=C1Nc2cc(C(F)(F)F)ccc2[C@]1(O)c1cc(Cl)ccc1O [Compound (S)-1] | > 200

Target: T1, IL-1β
Experiment: protein-observed 1H-13C-HMQC NMR binding (I/Io of Leu60 Cδ1H3)
Parameters: Mature hIL-1β was expressed in Escherichia coli; made in house; host or cells: Escherichia coli BL21 (DE3), pET17b
Details: not given
Protocol: ^1H–^13C- and ^1H–^15N-HMQC spectra were recorded on Bruker AVANCE 600 MHz and 800 MHz spectrometers equipped with TXI-cryocooled probeheads. In ligand binding experiments, protein concentrations were typically 50 μM in PBS, pH 7.4. Backbone assignments of hIL-1β in the ligand-bound state and unliganded state were obtained by a combination of a 3D triple resonance experiment HNCACB and a ^15N-edited NOESY spectrum, which were processed using TOPSPIN 3.2 and analyzed using CcpNmr AnalysisAssign 3.1.0[46]. ^15N-CEST experiments were run at weak B1 radiofrequency fields of 25 and 12.5 Hz on a Bruker AVANCE 800 MHz spectrometer with 113 increments and a total sweep width of 28 ppm in the pseudo-3D dimension. Peak intensities were extracted by fitting pseudo-Voigt lineshape models using peakipy (https://github.com/j-brady/peakipy). Fitted peak intensities were subsequently used to generate CEST profiles, and exchange parameters were fitted using ChemEx (https://github.com/gbouvignies/ChemEx).
Supplementary Figure 2. 13C-NMR and 19F-NMR reporter assays to monitor early
13C-HMQC spectra of hIL-1b (50 µM) were acquired in the presence (red) and absence (blue) of 500
µM compound and rows were extracted at the w1-frequency of the peak corresponding to Leu60 […]

SMILES | binding to hIL-1β by protein-observed NMR
O=C1Nc2cc(C(F)(F)F)ccc2C1(O)c1cc(Cl)ccc1O (stereo not shown) [Compound 1] | validated as a binder by 2D NMR
O=C1Nc2ccccc2C1(O)c1cc(Cl)ccc1O (stereo not shown) [Compound 6] | decreases protein binding
O=C1Nc2cc(C(F)(F)F)ccc2C1(O)c1ccccc1O (stereo not shown) [Compound 7] | decreases protein binding
O=C1Nc2cc(C(F)(F)F)ccc2[C@@]1(O)c1cc(Cl)ccc1O [Compound (R)-1] | only enantiomer (S)-1 showed binding to the protein

Same assay, conditions: hIL-1β 50 µM, 500 µM compound

SMILES | I/Io (ratio of peak intensities of Leu60 Cδ1H3 in 1H-13C-HMQC spectra in presence and absence of ligand)
O=C1Nc2ccccc2C1(O)c1cc(Cl)ccc1O (stereo not shown) [Compound 6] | 0.59 ± 0.03 (N = 2)
O=C1Nc2cc(C(F)(F)F)ccc2C1(O)c1ccccc1O (stereo not shown) [Compound 7] | 0.45 ± 0.05 (N = 2)
O=C1Nc2cc(Cl)ccc2C1(O)c1cc(Cl)ccc1O (stereo not shown) [Compound 9] | 0.3 (N = 1)

Same assay, conditions: source data

SMILES | NMR I/Io values, individual experiments (Exp1-2) | NMR I/Io values, Mean
O=C1Nc2cc(C(F)(F)F)ccc2C1(O)c1cc(Cl)ccc1O (stereo not shown) [Compound 1] | 0.39 and 0.31 | 
O=C1Nc2ccccc2C1(O)c1cc(Cl)ccc1O (stereo not shown) [Compound 6] | 0.57 and 0.61 | 0.59
O=C1Nc2cc(C(F)(F)F)ccc2C1(O)c1ccccc1O (stereo not shown) [Compound 7] | 0.41 and 0.48 | 

Target: T1, IL-1β
Experiment: TR-FRET IL-1β/hIL-1R1 receptor displacement assay
Type: biochemical
Details: read-out: TR-FRET IL-1β IC50
Protocol: After 1 h incubation at room temperature, hIL-1R1 (1–332; Alexa 647 labeled; 50 nM final concentration) and anti-His-Europium W1024 (Perkin Elmer; Cat.No. AD0401, 1 nM final concentration) were added to a final volume of 10 μl per well. […] All experiments were run in triplicates.

SMILES | IC50 [µM]
O=C1Nc2ccccc2C1(O)c1cc(Cl)ccc1O (stereo not shown) [Compound 6] | > 500
O=C1Nc2cc(C(F)(F)F)ccc2C1(O)c1ccccc1O (stereo not shown) [Compound 7] | > 500
